In patent US20130005759A1, “SMALL MOLECULE MODIFIERS OF MICRORNA MIR-122” (North Carolina State University, priority 2010, published 2013):

Legend:
miR-122 [1] = experiment: quantitative RT PCR of mature miR-122 in Huh7 cells; format: cell-based, human; conditions: Huh7, 10 μM, 48 hours
Procedure: The activity of the small molecule modifiers was analyzed by quantitative RT PCR in order to measure their direct effects on miR-122 expression levels in Huh7 cells. […] All experiments were conducted in triplicate, and the data was normalized to a DMSO control.
Each treatment was conducted in triplicate to ensure statistical validity. Cells were then incubated at 37° C. for 48 hours (DMEM, 5% CO2). The media was removed, and cells were washed with PBS buffer (2×2 mL, pH 7.4) followed by RNA isolation with the mirPremier™ microRNA Isolation Kit (Aldrich). The RNA was quantified using a Nanodrop ND-1000 spectrophotometer and 10 ng of each RNA sample was reverse transcribed using the TaqMan™ microRNA Reverse Transcription Kit (Applied Biosystems) in conjunction with either the miR-122 or miR-21 TaqMan™ RT primer (16° C., 30 min; 42° C., 30 min; 85° C., 5 min). Quantitative Real Time PCR was conducted with a TaqMan™ 2× Universal PCR Master Mix and the appropriate TaqMan™ miRNA assay (Applied Biosystems) on a BioRad MyiQ RT-PCR thermocycler (1.3 μL RT PCR product; 95° C., 10 min; followed by 40 cycles of 95° C., 15 s; 60° C. 60 s). Threshold cycles were used to determine miRNA copy numbers, and the levels of miR-122 and miR-21 were compared via determination of threshold cycle (Ct) and conversion to copy number (copy number=10[(Ct−37.4)/−3.3]).^17 The data was then normalized to the DMSO control. The samples were also analyzed by real time PCR for the presence of pri-miR-122 transcript using the previously described primers (5′ […] 3′ (SEQ ID NO:5) and 5′ […] 3′ (SEQ ID NO:6); IDT DNA) and iQ SYBR Green Supermix for the real time PCR (95° C., 3 min; followed by 40 cycles of 95° C., 15 s; 60° C. 60 s).^14

miR-122 [2] = experiment: psiCHECK-miR122 dual luciferase reporter assay in Huh7 cells; format: cell-based, human; conditions: for EC50: Homo sapiens, Huh-7, read-out: EC50 (miR-122 inhibitors, luciferase dose response); for Renilla luciferase expression with psiCHECK-miR122 (in words): Huh7, 10 μM (antagomir transfected), normalized to DMSO; for increase in the relative luciferase signal / relative luciferase units (RLU) normalized to a DMSO control: Huh7, psiCHECK-miR122, 10 μM; for increase in the relative luciferase signal: 48 hours; for relative luciferase units (RLU) normalized to a DMSO control: mean ± SD of three independent assays
Description: A miRNA small molecule modifier screen for miR-122 was developed based on the psiCHECK-2 (Promega) reporter plasmid (FIG. 9). This construct expresses both Renilla luciferase as well as firefly luciferase, allowing for the normalization of the signal to account for differential cellular viability and variability in transfection efficiency. The miR-122 target sequence was inserted downstream of the Renilla luciferase gene, between the PmeI and SgfI restriction sites. In another aspect of the invention, plasmids expressing luciferase or another reporter gene such as for example, fluorescent reporters (GFP and variants thereof, DsRed, etc.) or beta-galactosidase can be used to screen for small molecule modifiers of miR-122. The mi-122 target sequence may be upstream or downstream of the reporter gene. Multiple miR-122 target sites can also be inserted into or be present in the plasmid.
The presence of mature miR-122 will lead to a decrease in the Renilla luciferase signal (FIG. 1a). The ability to detect endogenous miR-122 was validated by transfecting the generated psiCHECK-miR122 construct into Huh7 and HeLa cells. After 48 hour incubation, the cells were assayed using a Dual Luciferase Assay Kit (Promega). In another embodiment, the cells can be incubated for about 24-96 hours. The Dual Luciferase Assay Kit provides a means to measure the amount of the luciferases by generating a luminescent signal. Using this assay the luminescence from the firefly luciferase reaction may be quenched while the luminescent reaction of Renilla luciferase can be activated. Other assays and procedures that can determine the amount of the one or more reporter genes or miR-122 expression, activity or function can be used. An example of another assay is Dual-Glo Assay (Promega).
The psiCHECK-miR122 vector was then employed in a small molecule screen in Huh7 cells to discover modifiers of miR-122 function. Other cells that express miR-122 such as HepG2 and Hep3B can be used in addition to or instead of Huh7 cells. An increase in the relative Renilla luciferase signal indicates a miR-122 inhibitor, while a reduction in the luciferase signal indicates a miR-122 activator. A genus of compounds that may have activity as modifiers of miR122 function are the Diversity Set II (1364 compounds) from the NCI Developmental Therapeutics Program was screened using Huh7 cells containing the psiCHECK-miR122 reporter. Cells were exposed to the small molecules and the relative luciferase signal was measured after 48 hours using a Dual Luciferase Assay Kit (Promega). In another embodiment the cells can be exposed to the small molecules for about 24-96 hours. As explained above, other assays and procedures that can determine the amount of the one or more reporter genes or miR-122 expression, activity or function can be used.
The analogs were screened for activity using the previously described miR-122 assay. All cells were treated with 10 μM of a compound and experiments were performed in triplicate to ensure statistical validity. The data was normalized to a 1% DMSO control and is reported in relative luciferase units (RLU). The standard deviation was calculated from three independent assays. Some analogs of miR-122 inhibitor compound 1 are:
Huh7 and HeLa cells were transfected at approximately 60% confluency with either the psiCHECK-Control plasmid (the original psiCHECK-2 plasmid containing no known miRNA binding site) or the psiCHECK-miR122 plasmid (0.5 μg) using X-tremGENE transfection reagent (3:2 reagent/DNA ratio; Roche) in Opti-Mem media (Invitrogen). All transfections were performed in triplicate for statistical analysis. The cells were incubated at 37° C. for 4 hours followed by the replacement of transfection media with standard DMEM growth media. After 48 hours of incubation the media was removed, cells were lysed and assayed with a Dual Luciferase Assay Kit (Promega) using a Wallac VICTOR^3V luminometer with a measurement time of 1 s and a delay time of 2 s. […]

Row | SMILES | knock-down of mature miR-122 levels relative to DMSO treated cells (miR-122 [1]) | EC50 (miR-122 [2]) | Renilla luciferase expression with psiCHECK-miR122 (in words) (miR-122 [2]) | increase in the relative luciferase signal (miR-122 [2]) | relative luciferase units (RLU) normalized to a DMSO control (miR-122 [2])
1 | O=C(Nc1ccc2ccccc2c1)c1ccc(Cl)cc1Cl [Compound 1] | 45% | 7.73 ± 0.38 µM | significant increase | 773±38% | 7.73±0.38 RLU
2 | O=S(=O)(c1ccc2c(c1)CCCN2)N1CCC[C@H]2CCCC[C@@H]21 [Compound 2] | 72% | 12.5 ± 1.25 µM | significant increase | 1251±125% | 12.51±1.25 RLU
